Experimental findings from the OPERA property sets (Mansouri et al. 2018) are described below.

Molecules are shown by their SMILES.

Details in one data set: not given
In turn, `O=C(c1ccc(Cl)cc1)c1ccc(Cl)cc1` yielded a boiling point of 353 °C and a melting point of 148 °C. With `Cc1cc(C)c(O)c(C(=O)CC2CC(=O)NC(=O)C2)c1`, the melting point was determined as 201 °C. `C=CCN=C=O` registered a boiling point of 88 °C. Still for that read-out and setting: for `CC(C)(C)c1ccc(Cl)cc1` the value was 213 °C. In turn, `O=C[C@@H](O)C(O)CO` (stereo in doubt) registered a melting point of 129 °C. Take `N#CCN(CC#N)CC#N`: the log10 vapour pressure (mmHg) is -6.5 and the melting point came out at 126 °C. For the compound `CC(C)(C)c1ccc(C(=O)O)cc1`, the melting point stood at 164 °C and the ready biodegradability result is given as “not readily biodegradable”. `ClCC(Cl)(CCl)CCl` came in with a boiling point of 211 °C. On the same count and under the same terms, for `Cc1c(F)cccc1Cl` the value was 154 °C; for `O=[N+]([O-])Cc1ccccc1`, 226 °C. For the compound `CCC(C)(CC)c1cc(NC(=O)c2c(OC)cccc2OC)on1`, the log10 Koc (L/kg) was 2.4, the log10 vapour pressure (mmHg) was -8.38 and the melting point amounted to 178 °C. Take `C[C@H](CS)C(=O)N1CCC[C@H]1C(=O)O`: the melting point was determined as 106 °C. In turn, `CC1CCCC(Br)C1` (configuration not stated) showed a boiling point of 181 °C. Regarding `CC(=O)Oc1cc(C(F)(F)F)ccc1C(=O)O`, the melting point was found to be 121 °C. Turning to `c1ccc(-c2nc(-c3ccccc3)c(-c3ccccc3)[nH]2)cc1`, the melting point was determined as 275 °C.

For the compound `C[C@H]1[C@H](C)CC[C@]2(C)CC[C@]3(C)C(=CC[C@@H]4[C@@]5(C)CC[C@H](O)C(C)(C)[C@@H]5CC[C@]43C)[C@H]12`, the melting point was 186 °C. `c1ccccc1`: the boiling point was determined as 80 °C, the log10 Henry constant (atm·m³/mol) was -2.26, the log10 Koa was determined as 2.78 and the log10 Koc (L/kg) worked out at 1.75. For the same compound, the log10 biodegradation half-life (days) was found to be 0.778, the log10 vapour pressure (mmHg) is 1.98 and the ready biodegradability entry was “readily biodegradable”. As for `CC(C)=CCCC(C)CCO` (racemic), the boiling point is 224 °C. Regarding `CC1=CC(C)(C)Nc2ccccc21`, the boiling point amounted to 260 °C, the melting point worked out at 26.5 °C and the ready biodegradability result is “not readily biodegradable”. As for `OC[C@@H](O)[C@@H](O)[C@H](O)[C@@H](O)CO`, the ready biodegradability entry is given as “readily biodegradable”. `Clc1cc(-c2c(Cl)c(Cl)cc(Cl)c2Cl)c(Cl)c(Cl)c1Cl` registered a log10 Henry constant (atm·m³/mol) of -5.

Turning to `CCCCCCNC(=O)C=Cc1ccc(O)c(O)c1`, the melting point worked out at 142 °C. For `CC=C(Cl)Cl`, the boiling point is 76.5 °C and the log10 vapour pressure (mmHg) amounted to 1.96. The compound `N#Cc1ccc2ccccc2n1` yielded a melting point of 95 °C. In turn, `CC(C)(C)c1nnc(NS(=O)(=O)c2ccccc2)s1` came in with a melting point of 163 °C. Same read-out and setting: for `O=C1CCCCCCCC1` the value was 34 °C. The same measure, in the same setting: for `CCCCCCCCCCCCCCCC(=O)OCCOC(=O)CCCCCCCCCCCCCCC` the value was 72 °C.

As for `COCC#N`, the boiling point was 119 °C. In turn, `CCC(Cl)C(C)Cl` (configuration not stated) registered a boiling point of 139 °C and a melting point of -77.3 °C. The like results for `CCC(=O)N(C)C` were, in that order, 174 °C and -45 °C. Turning to `O=Cc1cc(O)ccc1[N+](=O)[O-]`, the melting point is 167 °C. The same measure, in the same setting: for `CNC1=Nc2ccc(Cl)cc2C(c2ccccc2)=[N+]([O-])C1` the value was 236 °C.

Compound `CC(C)(C)C#N` came in with a boiling point of 106 °C, a log10 vapour pressure (mmHg) of 1.54 and a melting point of 15 °C.

Consider `NS(=O)(=O)c1cc2c(cc1Cl)NC(C1CC3C=CC1C3)NS2(=O)=O` (configuration not stated), for which the melting point stood at 234 °C.

Consider `OCCN1CCCCC1`, for which the boiling point stood at 202 °C and the melting point was determined as 17.9 °C. In the case of `CN1CCN(C)CC1`, the boiling point came to 131 °C. Consider `Cc1cc(C)[nH]n1`, for which the boiling point turned out to be 218 °C and the melting point is 108 °C.

On to `COc1cc(O)c(C=O)c(OC)c1`, for which the melting point is 70 °C.

Regarding `CCC(C)c1cc([N+](=O)[O-])cc([N+](=O)[O-])c1O` (configuration not stated), the boiling point is 332 °C, the log10 Koc (L/kg) turned out to be 2.7, the melting point worked out at 40 °C and the ready biodegradability entry is listed as “not readily biodegradable”. As to `Cc1cc(O)c(C2CC3CCC2(C)C3(C)C)cc1C` (configuration not stated), the melting point turned out to be 95 °C. `COC(=O)c1ccccc1O[C@@H]1O[C@H](CO[C@@H]2OC[C@@H](O)[C@H](O)[C@H]2O)[C@@H](O)[C@H](O)[C@H]1O` had a melting point of 180 °C. Regarding `NCCNCCN`, the boiling point was 207 °C, the melting point was -39 °C and the ready biodegradability entry was “not readily biodegradable”. `O=C1OS(=O)(=O)c2ccccc21`: the melting point was 130 °C. In turn, `CN1C(=O)CN=C(c2ccccc2)c2cc([N+](=O)[O-])ccc21` displayed a melting point of 82 °C. For `CC(C)CCCBr`, the boiling point was found to be 145 °C.

Compound `CCOC(=O)[C@@H](C)Oc1ccc(Oc2nc3ccc(Cl)cc3o2)cc1` returned a log10 vapour pressure (mmHg) of -7.52. The compound `O=C1c2ccccc2C(=O)N1SC(Cl)(Cl)Cl` showed a log10 Koc (L/kg) of 3.27 and a log10 vapour pressure (mmHg) of -6.8. `O=C(c1ccccc1)c1ccc(C(F)(F)F)cc1` displayed a melting point of 115 °C. The compound `CC(Cl)Br` (configuration not stated) returned a boiling point of 83 °C and a log10 vapour pressure (mmHg) of 1.93. Turning to `C[C@]12CC[C@H]3[C@@H](CCC4=CC(=O)CC[C@@H]43)[C@@H]1CC[C@@H]2O`, the melting point came to 118 °C. As to `CCCCSP(=O)(SCCCC)SCCCC`, the log10 Henry constant (atm·m³/mol) was -6.53, the log10 Koc (L/kg) was found to be 3.7, the log10 vapour pressure (mmHg) was -5.28 and the ready biodegradability result is given as “readily biodegradable”. `O=S(=O)(O)c1ccc(O)c2ncccc12` yielded a melting point of 322 °C. On the same count and under the same terms, for `CC(=O)Oc1ccc(OC(C)=O)cc1` the value was 124 °C. Regarding `CC(C)(C)Br`, the boiling point stood at 73.3 °C, the log10 vapour pressure (mmHg) was 2.13 and the melting point is -16.2 °C. For `CC(C)(CCl)C(=O)O`, the melting point was determined as 41.5 °C.

In the case of `Fc1c(F)c(F)c(I)c(F)c1F`, the boiling point was 166 °C and the melting point was -29 °C. The compound `C#CC(C)C` had a boiling point of 26.3 °C and a melting point of -89.7 °C.

On to `Cc1cc(-c2ccc(N)c(C)c2)ccc1N`, for which the boiling point came to 339 °C, the melting point was 132 °C and the ready biodegradability entry was “not readily biodegradable”. `O=C(Nc1ccc(Cl)cc1)c1cc(Br)ccc1O` registered a melting point of 240 °C.

Consider `COc1c(Cl)c(Cl)cc(Cl)c1Cl`, for which the melting point is 88.5 °C. On the same count and under the same terms, the figure for `CCN(CC)C(=O)COC(=O)c1ccccc1` is 72.5 °C.

Regarding `CNC(=O)Oc1cccc2ccccc12`, the boiling point was 315 °C, the log10 Koc (L/kg) is 2.4, the log10 vapour pressure (mmHg) is -5.87 and the melting point came to 145 °C. Further, the ready biodegradability result is given as “readily biodegradable”. For `Cc1ccc(C(=O)c2ccccc2)cc1`, the melting point was found to be 59.5 °C.

As for `CCOC(=O)CC(=O)CCl`, the melting point is -8 °C. On the same count and under the same terms, the figure for `N#CCCCCCCC#N` is -3.5 °C. Consider `Cc1cc(O)c([N+](=O)[O-])cc1Cl`, for which the log10 vapour pressure (mmHg) was -3.07 and the melting point is 133 °C. `COc1ccc(C(c2ccc(OC)cc2)C(Cl)(Cl)Cl)cc1` returned a boiling point of 346 °C, a log10 Henry constant (atm·m³/mol) of -6.69, a log10 Koc (L/kg) of 4.9 and a melting point of 87 °C. In turn, `O=Cc1ccc(O)cc1` registered a boiling point of 310 °C, a log10 Henry constant (atm·m³/mol) of -9.29, a log10 vapour pressure (mmHg) of -3.95 and a melting point of 117 °C. In addition, the ready biodegradability result was “readily biodegradable”.

`CCCCCCOC(=O)c1ccccc1` had a boiling point of 272 °C.

Compound `c1ccc(-c2ncc[nH]2)cc1` displayed a boiling point of 340 °C and a melting point of 149 °C. Take `CC1=C(/C=C/C(C)=C/C=C/C(C)=C/C=O)C(C)(C)CC=C1`: the melting point worked out at 77.5 °C.

The same data set, now with this note: fish.
Compound `CC(C)(C)c1ccc(C(=O)O)cc1` registered a log10 BCF of 0.66. Still for that read-out and setting: the figure for `c1ccccc1` is 0.63. `Clc1cc(-c2c(Cl)c(Cl)cc(Cl)c2Cl)c(Cl)c(Cl)c1Cl` gave a log10 biotransformation half-life (days) of 2.47. On the same count and under the same terms, for `Cc1cc2cccc(CCCC(C)C)c2cc1C` the value was 0.06. With `CCC(C)c1cc([N+](=O)[O-])cc([N+](=O)[O-])c1O` (configuration not stated), the log10 BCF worked out at 1.79. Still for that read-out and setting: the figure for `NCCNCCN` is 0.65. `Clc1cc2c(oc3c(Cl)c(Cl)ccc32)c(Cl)c1Cl` returned a log10 biotransformation half-life (days) of 0.9.

`Cc1cc(-c2ccc(N)c(C)c2)ccc1N`: the log10 BCF is 1.67. On the same count and under the same terms, the figure for `COc1c(Cl)c(Cl)cc(Cl)c1Cl` is 3.69. The compound `CNC(=O)Oc1cccc2ccccc12` returned a log10 BCF of 0.95 and a log10 biotransformation half-life (days) of -1.18. In turn, `COc1ccc(C(c2ccc(OC)cc2)C(Cl)(Cl)Cl)cc1` yielded a log10 BCF of 2.5.

The boiling point is the temperature at which the vapour pressure of the liquid equals the pressure above it. Usually melting point stands for the temperature, or range, at which the solid turns liquid.
